Patent US20210196724A1, “BIARYL COMPOSITIONS AND METHODS FOR MODULATING A KINASE CASCADE” (Athenex, Inc., priority 2016, published 2021)
Several values for one entry are separate records, joined by “and”; a condition that tells them apart may be missing. Equal values may be shown once.

Columns and labels:
GL261 cells = test: MTT cell growth inhibition (GI50), GL261; assay type: cell-based, murine; settings: 3 days
Procedure: (§1) The drug concentration required to block net cell growth by 50% relative to a control sample is measured as the GI50. The GI50s for several of the compounds of the application were assayed as described.
(§2) MTT assay: U87 and GL261 cells were seeded in 96-well plate (6×10^3 cells in 100 μl of DMEM+10% FBS media per well) and incubated overnight at 37° C. with 5% CO2. All test compounds were diluted (10 point 2-fold serial dilution) in a separate 96-well plate to yield 10× of final concentrations (0.5-256 nM). A volume of 11 μl of 10× dilutions was added to appropriate wells (n=3). To value (reflecting the starting number of cells upon drug treatment) was determined by following steps as described below. After 3 days incubation at 37° C. with 5% CO2, 10 μl of MTT solution (5 mg/ml in PBS) was added to each well and plates were incubated at 37° C. for 3 h to allow MTT to form formazan crystals by reacting with metabolically active cells. 100 μl of 20% SDS was added to each well and plates were incubated overnight at 37° C. with 5% CO2. Afterward, OD570 was measured using microplate reader. The cell growth percentage of control was calculated according to percentage of control=(T−T0)/(C−T0)×100% or OD value of the test well exposure to test drug—OD value at time zero/(OD of the control well without drug treatment−OD value at time zero)×100%. Growth inhibition curves and GI50 were determined using GraphPad Prism 5 software.

U87 cells = test: MTT cell growth inhibition (GI50), U87; assay type: cell-based, human; settings: 3 days
Procedure: as §1, §2

HT-29 = test: Cell growth inhibition (GI50), HT-29; assay type: cell-based; settings: Homo sapiens, HT-29, HT-29
Procedure: as §1

[1] = Brain permeability (brain:plasma ratio); assay type: in vivo; settings: read-out: Brain:Plasma (B:P) Average; for Kp at 0.25 h: time point 0.25 h; for Kp at 0.5 h: time point 0.5 h; for Kp at 1 h: time point 1 h; for Kp at 2 h: time point 2 h; for Kp at 4 h: time point 4 h; for Kp at 6 h: time point 6 h; for Kp at 8 h: time point 8 h
Procedure: Brain permeability can be measured by various methods known in the art. For example, brain permeability can be measured by calculating the ratio between the concentration of a compound of the application in the brain and the concentration of the compound in the plasma (i.e., BP ratio). In one aspect, a compound of the application has a B:P ratio of at least 1.0, 1.1, 1.2, 1.3, 1.4, 1.5, 1.6, 1.7, 1.8, 1.9, or 2.0 at 1 hour after administration of the compound to a subject. In one aspect, a compound of the application has a B:P ratio of at least 1.5, 1.6, 1.7, 1.8, 1.9, or 2.0 at 1 hour after administration of the compound to a subject. In one aspect, a compound of the application has a B:P ratio of at least 1.4, 1.5, 1.6, 1.7, 1.8, 1.9, 2.0, 2.1, 2.2, or 2.3 at 2 hours after administration of the compound to a subject. In one aspect, a compound of the application has a B:P ratio of at least 1.9, 2.0, 2.1, 2.2, or 2.3 at 2 hours after administration of the compound to a subject. In one aspect, a compound of the application has a B:P ratio of at least 1.7, 1.8, 1.9, 2.0, 2.1, 2.2, 2.3, 2.4, or 2.5 at 4 hours after administration of the compound to a subject. In one aspect, a compound of the application has a B:P ratio of at least 2.2, 2.3, 2.4, or 2.5 at 4 hours after administration of the compound to a subject.

[2] = Pharmacokinetic properties after IV and PO administration; assay type: in vivo; settings: for AUCIV (dose-normalized) / t0.5 / C0 / clearance / Vd: IV Administration (5 mg/kg); for F (%) = 100 × AUCpo/AUCIV: PO 20 mg/kg vs IV 5 mg/kg; for AUCPO (dose-normalized) / Cmax: PO Administration (20 mg/kg); for C0 / clearance / Vd / Cmax: in vivo; for Vd: read-out: Vss
[3] = system: GL261 glioblastoma cells injected intra-cranially; test: GL261 murine model of glioblastoma (intra-cranial), survival; assay type: in vivo, C57BL/6 mice
Procedure: The anti-tumor activity of Compound 121, as a single agent, was studied in the GL261 murine model of human glioblastoma. Murine GL261 glioblastoma cells were injected intra-cranially into syngeneic, immune-competent hosts (C57BL/6). In order for oral therapeutics to be effective, it is required that the therapeutic be able to cross the blood-brain barrier in order to achieve sufficient levels in the brain to exert an anti-tumor effect. Survival was the major endpoint for the study. The mice either succumbed to the tumor or were euthanized based on severity of tumor-dependent morbidity. Mice that achieved long-term survival (>80 days) were re-challenged with a sub-cutaneous injection of GL261 cells to assess the development of a durable immune response to GL261. Mice that underwent the re-challenge phase were not treated with Compound 121.
GL261 cells (1×10^5 cells) were implanted into the brain of a C57BL/6 host using stereotactice injection. Compound 121 was dosed orally once per day at 1 mg/kg (N=10) for 45 days beginning 3 days post-tumor cell implantation. Compound Y was dosed orally once per day at 5 mg/kg (N=10) for 45 days beginning 3 days post-tumor implantation. A vehicle was administered to a control group of mice (N=10) per the same schedule.
Mice were monitored for signs of tumor dependent morbidity, including head tilt, hunching, ataxia, and limb weakness. Mice were euthanized when cumulative signs of high tumor burden were evident.

Row | Compound | GI50 (U87 cells) | GI50 (U87 cells; Homo sapiens, U-87 MG, 72 h) [nM] | GI50 (GL261 cells) | GI50 (GL261 cells; Mus musculus, GL261, 72 h) [nM] | other results
1 | C[C@H]1CN(c2ccc(-c3ccc(CC(=O)NCc4cccc(F)c4)nc3)cc2)CCO1 [Compound 100] | 151 nM | 203 | 127 nM | 129 | 
2 | C[C@@H]1CN(c2ccc(-c3ccc(CC(=O)NCc4cccc(F)c4)nc3)cc2)CCO1 [Compound 101] |  | 96 |  | 76 | 
3 | C[C@H]1COCCN1c1ccc(-c2ccc(CC(=O)NCc3cccc(F)c3)nc2)cc1 [Compound 102] | 37 nM | 25 | 42 nM | 24 | 
4 | C[C@@H]1COCCN1c1ccc(-c2ccc(CC(=O)NCc3cccc(F)c3)nc2)cc1 [Compound 103] |  | 146 |  | 113 | 
5 | Cc1cc(N2CCOC[C@H]2C)ccc1-c1ccc(CC(=O)NCc2ccccc2)nc1 [Compound 105] | 12.2 nM | 10.8 | 6.9 nM | 5.7 | 
6 | Cc1cc(N2CCOC[C@@H]2C)ccc1-c1ccc(CC(=O)N[C@@H]2CCc3ccccc32)nc1 [Compound 107] | 23.4 nM | 22.1 | 28.3 nM | 19.4 | 
7 | C[C@H]1COCCN1c1ccc(-c2ccc(CC(=O)NCc3ccccc3)nc2)cc1 [Compound 108] |  | 6.6 |  | 6.8 | GI50 (HT-29): 3 nM
8 | Cc1cc(CC(=O)NCc2cccc(F)c2)ncc1-c1ccc(N2CCOC[C@@H]2C)cc1 [Compound 109] |  | > 1020 |  | > 1020 | 
9 | Cc1cc(CC(=O)NCc2cccc(F)c2)ncc1-c1ccc(N2CCOC[C@H]2C)cc1 [Compound 110] |  | > 1020 |  | > 1020 | 
10 | Cc1cc(CC(=O)NCc2ccccc2)ncc1-c1ccc(N2CCOC[C@@H]2C)cc1 [Compound 111] | 224 nM | 239 | 170 nM | 195 | 
11 | Cc1cc(CC(=O)NCc2ccccc2)ncc1-c1ccc(N2CCOC[C@H]2C)cc1 [Compound 112] | 401 nM | 352 | 240 nM | 210 | 
12 | Cc1nc(CC(=O)NCc2cccc(F)c2)ccc1-c1ccc(N2CCOC[C@@H]2C)cc1 [Compound 113] |  |  | 120 nM and 99 nM | 180 | GI50 (HT-29): 46 nM
13 | Cc1nc(CC(=O)NCc2cccc(F)c2)ccc1-c1ccc(N2CCOC[C@H]2C)cc1 [Compound 114] |  |  | 500 nM | 340 | 
14 | O=C(Cc1ccc(-c2ccc(N3CCOCC3)cc2)cn1)NCc1cccc(F)c1 [Compound Y, reference compound] |  |  |  |  | Kp at 0.25 h [1]: 1.56; Kp at 0.5 h [1]: 1.46; Kp at 1 h [1]: 1.33; Kp at 2 h [1]: 0.712; Kp at 4 h [1]: 0.834; Kp at 6 h [1]: 0.633; Kp at 8 h [1]: 0.685; AUCIV (dose-normalized) [2]: 553 kg·ng·h/mL/mg; t0.5 [2]: 0.364 h; F (%) = 100 × AUCpo/AUCIV [2]: 39.3%; AUCPO (dose-normalized) [2]: 217 kg·ng·h/mL/mg; C0 [2]: 4620 ng/mL; clearance [2]: 30.2 mL/min/kg; Vd [2]: 0.962 L/kg; Cmax [2]: 2590 ng/mL; Activity in GL261 model ([3]; dosed once daily at >20 mg/kg): demonstrated activity; Effect on survival ([3]; orally once per day at 5 mg/kg for 45 days): only a marginal, insignificant effect on survival

The next lines start with results.

Row | GI50 (U87 cells) | GI50 (U87 cells; Homo sapiens, U-87 MG, 72 h) [nM] | Compound | GI50 (GL261 cells) | GI50 (GL261 cells; Mus musculus, GL261, 72 h) [nM] | other results
15 | 15 nM and 15.6 nM | 30 | Cc1nc(CC(=O)NCc2ccccc2)ccc1-c1ccc(N2CCOC[C@@H]2C)cc1 [Compound 115] |  |  | 
16 | 115 nM and 98 nM | 120 | Cc1nc(CC(=O)NCc2ccccc2)ccc1-c1ccc(N2CCOC[C@H]2C)cc1 [Compound 116] | 90 nM and 74 nM | 110 | 
17 |  | > 729 | Cc1cc(N2CCOC[C@@H]2C)ccc1-c1ccc(CC(=O)NCc2ccncc2)nc1 [Compound 117] | 387 nM | 488 | 
18 |  | 621 | Cc1cc(N2CCOC[C@@H]2C)ccc1-c1ccc(CC(=O)NCc2cccnc2)nc1 [Compound 118] |  | 262 | 
19 | 233 nM and 224 nM | 129 | Cc1cc(N2CCOC[C@@H]2C)ccc1-c1ccc(CC(=O)NCc2ccccn2)nc1 [Compound 119] | 216 nM and 139 nM | 164 | 
20 | 22.3 nM and 18.4 nM and 17.7 nM and 18.6 nM | 20.2 | Cc1cc(N2CCOC[C@@H]2C)ccc1-c1ccc(CC(=O)NCc2ccccc2F)nc1 [Compound 120] | 13.6 nM and 18.9 nM and 15.8 nM and 13.4 nM and 10.7 nM | 17 | Kp at 0.25 h [1]: 1.24; Kp at 0.5 h [1]: 1.39; Kp at 1 h [1]: 1.72; Kp at 2 h [1]: 1.38; Kp at 4 h [1]: 1.04; Kp at 6 h [1]: 0.82; Kp at 8 h [1]: 1.12; AUCIV (dose-normalized) [2]: 188 kg·ng·h/mL/mg; t0.5 [2]: 0.663 h; F (%) = 100 × AUCpo/AUCIV [2]: 40.9%; AUCPO (dose-normalized) [2]: 76.8 kg·ng·h/mL/mg; C0 [2]: 1590 ng/mL; clearance [2]: 88.7 mL/min/kg; Vd [2]: 3.63 L/kg; Cmax [2]: 798 ng/mL
21 | 17.3 nM | 24.7 | Cc1cc(N2CCOC[C@@H]2C)ccc1-c1ccc(CC(=O)NCc2ccc(C#N)cc2)nc1 [Compound 122] | 18.9 nM | 13.8 | 
22 |  | 473 | Cc1cc(N2CCOC[C@@H]2C)ccc1-c1ccc(CC(=O)NCc2ccccc2C#N)nc1 [Compound 123] |  | 456 | 
23 |  | 860 | Cc1cc(N2CCOC[C@@H]2C)ccc1-c1ccc(CC(=O)NCc2cccc(C#N)c2)nc1 [Compound 124] |  | 1030 | 
24 | 230 nM | 195 | COc1ccccc1CNC(=O)Cc1ccc(-c2ccc(N3CCOC[C@@H]3C)cc2C)cn1 [Compound 125] | 158 nM | 140 | 
25 | 46 nM | 41.9 | COc1cc(N2CCOC[C@@H]2C)ccc1-c1ccc(CC(=O)NCc2ccccc2)nc1 [Compound 126] | 38.6 nM | 47.9 | 
26 |  | 269 | COc1cc(N2CCOC[C@@H]2C)ccc1-c1ccc(CC(=O)NCc2ccccc2F)nc1 [Compound 127] |  | 207 | 
27 |  | 377 | COc1cc(N2CCOC[C@@H]2C)ccc1-c1ccc(CC(=O)NCc2cccc(F)c2)nc1 [Compound 128] |  | 303 | 
28 | 38.1 nM | 36 | COc1cc(N2CCOC[C@@H]2C)ccc1-c1ccc(CC(=O)NCc2ccc(F)cc2)nc1 [Compound 129] | 30.3 nM | 51.7 | 
29 | 135 nM | 104 | COc1cc(N2CCOC[C@@H]2C)ccc1-c1ccc(CC(=O)NCc2ccc(C#N)cc2)nc1 [Compound 130] | 107 nM | 111 | 
